# Species on record: Rattus norvegicus
# Assay: Open TG-GATES - Regimen: Daily Repeat
# Assay type: toxicity, organism-based, Sprague-Dawley
# Parameters: regimen Daily Repeat, gender Male, age 6 weeks
# Details: in vivo, po, route gavage; for APTT / Bas / Eos / Fbg / Hb / Ht / Lym / MCH / MCHC / MCV / Mono / Neu / PT / Plat / RBC / Ret / WBC: tissue Blood; for LIVER: tissue Liver; for A/G / ALP / ALT / AST / BUN / CRE / Ca / Cl / DBIL / GLC / IP / K / LDH / Na / PL / RALB / TBIL / TC / TG / TP / gamma-GTP: tissue Plasma
# [1] = 15 mg/kg, 72 h, dose level Middle, time 3 day
# [2] = 15 mg/kg, […], dose level Middle, time 7 day
# [3] = 15 mg/kg, […], dose level Middle, time 14 day
# [4] = 15 mg/kg, […], dose level Middle, time 28 day
# [5] = 50 mg/kg, 72 h, dose level High, time 3 day
# [6] = 50 mg/kg, […], dose level High, time 7 day
# [7] = 50 mg/kg, […], dose level High, time 14 day
# [8] = 50 mg/kg, […], dose level High, time 28 day
smiles,measurement,setting,value
C=C(C)[C@H]1Cc2c(ccc3c2O[C@@H]2COc4cc(OC)c(OC)cc4[C@@H]2C3=O)O1 [ROTENONE],TERMINAL_BW,[1],217.2 g
same,APTT,[1],15.9 s
same,Bas,[1],0%
same,Eos,[1],1%
same,Fbg,[1],211.8 mg/dL
same,Hb,[1],13.1 g/dL
same,Ht,[1],40.2%
same,Lym,[1],71%
same,MCH,[1],20.9 pg
same,MCHC,[1],32.7%
same,MCV,[1],63.9 fL
same,Mono,[1],7.8%
same,Neu,[1],20.4%
same,PT,[1],11.8 s
same,Plat,[1],122 x10_4/uL
same,RBC,[1],628.8 x10_4/ul
same,Ret,[1],6.1%
same,WBC,[1],99.8 x10_2/uL
same,LIVER,[1],10.7 g
same,A/G,[1],2.2
same,ALP,[1],1449.2 IU/L
same,ALT,[1],37.8 IU/L
same,AST,[1],70.6 IU/L
same,BUN,[1],17 mg/dL
same,CRE,[1],0.4 mg/dL
same,Ca,[1],11.8 mg/dL
same,Cl,[1],104.2 meq/L
same,DBIL,[1],0.014 mg/dL
same,GLC,[1],188.4 mg/dL
same,IP,[1],7.3 mg/dL
same,K,[1],4.3 meq/L
same,LDH,[1],117 IU/L
same,Na,[1],141.8 meq/L
same,PL,[1],149.8 mg/dL
same,RALB,[1],3.7 g/dL
same,TBIL,[1],0.038 mg/dL
same,TC,[1],79.2 mg/dL
same,TG,[1],104.8 mg/dL
same,TP,[1],5.5 g/dL
same,gamma-GTP,[1],0.6 IU/L
same,TERMINAL_BW,[2],254.3 g
same,TERMINAL_BW,[3],305.1 g
same,TERMINAL_BW,[4],389.3 g
same,APTT,[2],17 s
same,Bas,[2],0%
same,Eos,[2],1%
same,Fbg,[2],237.8 mg/dL
same,Hb,[2],13.3 g/dL
same,Ht,[2],40.4%
same,Lym,[2],74.2%
same,MCH,[2],20.6 pg
same,MCHC,[2],32.8%
same,MCV,[2],62.9 fL
same,Mono,[2],5.8%
same,Neu,[2],19.2%
same,PT,[2],11.4 s
same,Plat,[2],140.2 x10_4/uL
same,RBC,[2],643.4 x10_4/ul
same,Ret,[2],5%
same,WBC,[2],113.4 x10_2/uL
same,APTT,[3],15.6 s
same,Bas,[3],0%
same,Eos,[3],1%
same,Fbg,[3],240.8 mg/dL
same,Hb,[3],13.8 g/dL
same,Ht,[3],41.7%
same,Lym,[3],75.2%
same,MCH,[3],20.6 pg
same,MCHC,[3],33%
same,MCV,[3],62.3 fL
same,Mono,[3],3.8%
same,Neu,[3],20.2%
same,PT,[3],11.5 s
same,Plat,[3],130 x10_4/uL
same,RBC,[3],670.4 x10_4/ul
same,Ret,[3],3.8%
same,WBC,[3],127.2 x10_2/uL
same,APTT,[4],18 s
same,Bas,[4],0%
same,Eos,[4],1.2%
same,Fbg,[4],196.8 mg/dL
same,Hb,[4],14.9 g/dL
same,Ht,[4],45.4%
same,Lym,[4],77.8%
same,MCH,[4],18.9 pg
same,MCHC,[4],32.8%
same,MCV,[4],57.7 fL
same,Mono,[4],5%
same,Neu,[4],16.2%
same,PT,[4],12.5 s
same,Plat,[4],126.2 x10_4/uL
same,RBC,[4],786 x10_4/ul
same,Ret,[4],1.8%
same,WBC,[4],111.5 x10_2/uL
same,LIVER,[2],13 g
same,LIVER,[3],14.1 g
same,LIVER,[4],17.3 g
same,A/G,[2],2.2
same,ALP,[2],1376.6 IU/L
same,ALT,[2],35.4 IU/L
same,AST,[2],67 IU/L
same,BUN,[2],17.2 mg/dL
same,CRE,[2],0.4 mg/dL
same,Ca,[2],11.5 mg/dL
same,Cl,[2],103.2 meq/L
same,DBIL,[2],0.016 mg/dL
same,GLC,[2],198.6 mg/dL
same,IP,[2],7.4 mg/dL
same,K,[2],4.3 meq/L
same,LDH,[2],110.8 IU/L
same,Na,[2],140.4 meq/L
same,PL,[2],150.6 mg/dL
same,RALB,[2],3.8 g/dL
same,TBIL,[2],0.036 mg/dL
same,TC,[2],82.4 mg/dL
same,TG,[2],105.2 mg/dL
same,TP,[2],5.6 g/dL
same,gamma-GTP,[2],1 IU/L
same,A/G,[3],2.1
same,ALP,[3],1261.6 IU/L
same,ALT,[3],36.2 IU/L
same,AST,[3],68.4 IU/L
same,BUN,[3],18.4 mg/dL
same,CRE,[3],0.4 mg/dL
same,Ca,[3],11.6 mg/dL
same,Cl,[3],105 meq/L
same,DBIL,[3],0.01 mg/dL
same,GLC,[3],188.6 mg/dL
same,IP,[3],6.9 mg/dL
same,K,[3],4.4 meq/L
same,LDH,[3],103.6 IU/L
same,Na,[3],139.6 meq/L
same,PL,[3],140 mg/dL
same,RALB,[3],3.9 g/dL
same,TBIL,[3],0.028 mg/dL
same,TC,[3],77.4 mg/dL
same,TG,[3],95.2 mg/dL
same,TP,[3],5.7 g/dL
same,gamma-GTP,[3],1 IU/L
same,A/G,[4],2
same,ALP,[4],1146.8 IU/L
same,ALT,[4],29.2 IU/L
same,AST,[4],62 IU/L
same,BUN,[4],19.5 mg/dL
same,CRE,[4],0.4 mg/dL
same,Ca,[4],10.9 mg/dL
same,Cl,[4],105.2 meq/L
same,DBIL,[4],0.01 mg/dL
same,GLC,[4],186 mg/dL
same,IP,[4],5.7 mg/dL
same,K,[4],4.5 meq/L
same,LDH,[4],124.8 IU/L
same,Na,[4],141 meq/L
same,PL,[4],150.8 mg/dL
same,RALB,[4],3.9 g/dL
same,TBIL,[4],0.0325 mg/dL
same,TC,[4],68.5 mg/dL
same,TG,[4],180.2 mg/dL
same,TP,[4],5.9 g/dL
same,gamma-GTP,[4],1 IU/L
same,TERMINAL_BW,[5],199.2 g
same,APTT,[5],16.3 s
same,Bas,[5],0%
same,Eos,[5],0.8%
same,Fbg,[5],198.6 mg/dL
same,Hb,[5],13.7 g/dL
same,Ht,[5],41.6%
same,Lym,[5],72.4%
same,MCH,[5],21 pg
same,MCHC,[5],32.9%
same,MCV,[5],64 fL
same,Mono,[5],8%
same,Neu,[5],18.8%
same,PT,[5],12.2 s
same,Plat,[5],126.4 x10_4/uL
same,RBC,[5],649.4 x10_4/ul
same,Ret,[5],3.3%
same,WBC,[5],91.2 x10_2/uL
same,LIVER,[5],9.9 g
same,A/G,[5],2.4
same,ALP,[5],1100.4 IU/L
same,ALT,[5],25.4 IU/L
same,AST,[5],65.4 IU/L
same,BUN,[5],16 mg/dL
same,CRE,[5],0.4 mg/dL
same,Ca,[5],11.8 mg/dL
same,Cl,[5],106.6 meq/L
same,DBIL,[5],0.01 mg/dL
same,GLC,[5],191.2 mg/dL
same,IP,[5],7.5 mg/dL
same,K,[5],4.2 meq/L
same,LDH,[5],93.8 IU/L
same,Na,[5],142.8 meq/L
same,PL,[5],136.4 mg/dL
same,RALB,[5],3.9 g/dL
same,TBIL,[5],0.034 mg/dL
same,TC,[5],82.6 mg/dL
same,TG,[5],52.6 mg/dL
same,TP,[5],5.5 g/dL
same,gamma-GTP,[5],0.8 IU/L
same,TERMINAL_BW,[6],230.8 g
same,TERMINAL_BW,[7],251.7 g
same,TERMINAL_BW,[8],288.8 g
same,APTT,[6],16.5 s
same,Bas,[6],0%
same,Eos,[6],0.6%
same,Fbg,[6],196.4 mg/dL
same,Hb,[6],13.5 g/dL
same,Ht,[6],41.1%
same,Lym,[6],74.8%
same,MCH,[6],21 pg
same,MCHC,[6],32.9%
same,MCV,[6],63.9 fL
same,Mono,[6],6%
same,Neu,[6],18.6%
same,PT,[6],12 s
same,Plat,[6],117.6 x10_4/uL
same,RBC,[6],643.6 x10_4/ul
same,Ret,[6],4.2%
same,WBC,[6],95.8 x10_2/uL
same,APTT,[7],16.5 s
same,Bas,[7],0%
same,Eos,[7],0.8%
same,Fbg,[7],190.2 mg/dL
same,Hb,[7],14.7 g/dL
same,Ht,[7],44.3%
same,Lym,[7],69.4%
same,MCH,[7],20 pg
same,MCHC,[7],33.1%
same,MCV,[7],60.5 fL
same,Mono,[7],7.4%
same,Neu,[7],22.4%
same,PT,[7],12.6 s
same,Plat,[7],128.2 x10_4/uL
same,RBC,[7],733.8 x10_4/ul
same,Ret,[7],3.6%
same,WBC,[7],98.4 x10_2/uL
same,APTT,[8],19.4 s
same,Bas,[8],0%
same,Eos,[8],0.6%
same,Fbg,[8],163.2 mg/dL
same,Hb,[8],16 g/dL
same,Ht,[8],48.6%
same,Lym,[8],80%
same,MCH,[8],18.8 pg
same,MCHC,[8],33%
same,MCV,[8],56.9 fL
same,Mono,[8],4.2%
same,Neu,[8],15%
same,PT,[8],14.2 s
same,Plat,[8],117.8 x10_4/uL
same,RBC,[8],859 x10_4/ul
same,Ret,[8],1.5%
same,WBC,[8],88.4 x10_2/uL
same,LIVER,[6],12.9 g
same,LIVER,[7],13.1 g
same,LIVER,[8],12 g
same,A/G,[6],2.2
same,ALP,[6],1181.6 IU/L
same,ALT,[6],26.2 IU/L
same,AST,[6],65.8 IU/L
same,BUN,[6],18 mg/dL
same,CRE,[6],0.4 mg/dL
same,Ca,[6],11.7 mg/dL
same,Cl,[6],104 meq/L
same,DBIL,[6],0.014 mg/dL
same,GLC,[6],198.6 mg/dL
same,IP,[6],6.4 mg/dL
same,K,[6],4.2 meq/L
same,LDH,[6],103.6 IU/L
same,Na,[6],141 meq/L
same,PL,[6],137.4 mg/dL
same,RALB,[6],4 g/dL
same,TBIL,[6],0.022 mg/dL
same,TC,[6],73 mg/dL
same,TG,[6],80 mg/dL
same,TP,[6],5.8 g/dL
same,gamma-GTP,[6],0.8 IU/L
same,A/G,[7],2.4
same,ALP,[7],1140.4 IU/L
same,ALT,[7],43.2 IU/L
same,AST,[7],101.8 IU/L
same,BUN,[7],22.4 mg/dL
same,CRE,[7],0.4 mg/dL
same,Ca,[7],11.5 mg/dL
same,Cl,[7],105.2 meq/L
same,DBIL,[7],0.014 mg/dL
same,GLC,[7],178.8 mg/dL
same,IP,[7],7.4 mg/dL
same,K,[7],4.3 meq/L
same,LDH,[7],108.4 IU/L
same,Na,[7],140.6 meq/L
same,PL,[7],145.8 mg/dL
same,RALB,[7],3.9 g/dL
same,TBIL,[7],0.032 mg/dL
same,TC,[7],68.4 mg/dL
same,TG,[7],121.2 mg/dL
same,TP,[7],5.6 g/dL
same,gamma-GTP,[7],1 IU/L
same,A/G,[8],2.2
same,ALP,[8],639.6 IU/L
same,ALT,[8],20.2 IU/L
same,AST,[8],53 IU/L
same,BUN,[8],20.8 mg/dL
same,CRE,[8],0.4 mg/dL
same,Ca,[8],10.6 mg/dL
same,Cl,[8],107 meq/L
same,DBIL,[8],0.01 mg/dL
same,GLC,[8],188.2 mg/dL
same,IP,[8],5.9 mg/dL
same,K,[8],4.4 meq/L
same,LDH,[8],79 IU/L
same,Na,[8],142.8 meq/L
same,PL,[8],122.4 mg/dL
same,RALB,[8],3.9 g/dL
same,TBIL,[8],0.038 mg/dL
same,TC,[8],67.6 mg/dL
same,TG,[8],65.2 mg/dL
same,TP,[8],5.8 g/dL
same,gamma-GTP,[8],1 IU/L

# — ChEMBL document CHEMBL3885861, “Open TG-GATES”
